Legend:
Type in all cases: cell-based
LC3 gene [1] = assay: LC3 gene expression promoting effect in human senescent fibroblasts (quantitative real-time PCR)
Protocol: Senescent fibroblasts were prepared by the following procedure.
Normal human fibroblasts (NB1RGB, RIKEN BRC Cell Bank) were cultured until confluent in D-MEM medium (manufactured by Sigma-Aldrich) to which 10% fetal bovine serum (manufactured by MP Biomedicals) was added. Thereafter, the cells were treated with 250 μM aqueous hydrogen peroxide for 2 hours, and cultured for 24 hours in D-MEM medium to which fresh 10% fetal bovine serum was added. The treatment with aqueous hydrogen peroxide and the cell culture operation were repeated three times, and the obtained fibroblasts were used as senescent fibroblasts.
The prepared senescent fibroblasts were prepared at a seeding density of 10000 cells/cm^2 and cultured for 24 hours in D-MEM medium (manufactured by Sigma-Aldrich) to which 10% fetal bovine serum (manufactured by MP Biomedicals) was added. […]
(§1) Then, using Nucleospin (registered trademark) RNA kit (manufactured by Takara Bio Inc.), RNA was extracted from senescent fibroblasts or normal human fibroblasts in each example, and cDNA was synthesized from the obtained RNA. Next, using this cDNA as a template, by quantitative real-time PCR, the expression level of each gene was quantified using primers (manufactured by Takara Bio Inc.) specific to the LC3 gene, ATG5 gene, and Beclin 1 gene, respectively. […]

LC3 gene [2] = assay: LC3 gene expression promoting effect in human neuroblastoma in the presence of amyloid β
Protocol: (§2) In the presence of an autophagy activator, the expression levels of the LC3 gene, ATG5 gene, and Beclin 1 gene in human neuroblastoma (SH-SY5Y; obtained from ATCC) were measured by the following test method, and the effect of promoting the expression of the LC3 gene, ATG5 gene, and Beclin 1 gene by an autophagy activator was evaluated.
(§3) In the following examples and comparative examples, tests were performed by adding amyloid β, which is known to cause a decrease in autophagy in nerve cells, to each medium.
(§4) SH-SY5Y cells were prepared at a seeding density of 10000 cells/cm^2 and cultured for 24 hours in D-MEM medium/Ham's F-12 medium (manufactured by Sigma-Aldrich) to which 10% fetal bovine serum (manufactured by MP Biomedicals) was added. Next, in Example 15, the inositol derivative A dissolved in purified water was added to the medium such that the final concentration of the inositol derivative A was 10-4% (V/V). […]
as §1, with “SH-SY5Y cells” for “senescent fibroblasts or normal human fibroblasts”

ATG5 gene = ATG5 gene expression promoting effect in human neuroblastoma in the presence of amyloid β
Protocol: as §2, §3, §4
as §1, with “SH-SY5Y cells” for “senescent fibroblasts or normal human fibroblasts”

Beclin 1 gene = Beclin 1 gene expression promoting effect in human neuroblastoma in the presence of amyloid β
Protocol: as §2, §3, §4
as §1, with “SH-SY5Y cells” for “senescent fibroblasts or normal human fibroblasts”

[3] = SH-SY5Y cells with amyloid β, compared to Reference Example 3 (purified water only, no amyloid β)
[4] = SH-SY5Y cells, 20 μM amyloid β present, 48 hours, 10^−3% (V/V) inositol or inositol derivative A, with the vitamin derivative of the example where added, Reference Example 3 (purified water, no amyloid β) = 1.00

O[C@H]1[C@H](O)[C@@H](O)[C@H](O)[C@@H](O)[C@H]1O [Comparative Example 2, myo-inositol]
Relative gene expression level LC3 (LC3 gene [1]; 24 hours, 10^−3% (V/V) inositol or inositol derivative A, with the vitamin derivative of the example where added, GAPDH-standardized, Comparative Example 1 (purified water) = 1.00): 0.77 | expression level of the LC3 gene, in words (LC3 gene [1]; compared to Comparative Example 1 (purified water only)): more decreased | expression level of the LC3 gene, in words (LC3 gene [2]; [3]): slightly increased | Relative gene expression level LC3 (LC3 gene [2]; [4]): 1.41 | expression level of the ATG5 gene, in words (ATG5 gene; [3]): slightly increased | Relative gene expression level ATG5 (ATG5 gene; [4]): 1.39 | expression level of the Beclin 1 gene, in words (Beclin 1 gene; [3]): slightly increased | Relative gene expression level Beclin 1 (Beclin 1 gene; [4]): 1.31

Source: US20230364119A1, “AUTOPHAGY ACTIVATOR” (Resonac Corporation, priority 2020, published 2023)
